{"source": "patent US20070232690A1", "about": "“Composition for inducing differentiation of leukemic cells and application thereof” (Mackay Memorial Hospital, priority 2006, published 2007)", "assay_type_in_all_cases": "cell-based, human", "key": {"HL-60 cells [1]": {"system": "HL-60 cells", "test": "Induction of monocytic differentiation by various combination treatments", "method": "After 5 days of treatments (1-5 μg/ml of […]) as described in Example 1, HL-60 cells were collected and cytocentrifuged onto a microscope slide using a Cytospin, stained with Wright's stain and observed under an inverted microscope (Olympus) with a magnification of 1000×. Based on morphology, the cells were classified as: […] These combination treatments included: […]"}, "HL-60 cells [2]": {"system": "HL-60 cells", "test": "Assay for cell growth inhibition (Trypan blue dye exclusion)", "conditions": "for inhibition at 5 µg/mL: 5 μg/ml", "from_the_text": "The human myeloid leukemic cell line HL-60 is known to be induced by several biological agents or chemical drugs to differentiate into mature cells. The results of differentiation can be cell morphological changes, cell chemical changes or functionally mature changes. Therefore, HL-60 cells were often applied in many differentiation studies of leukemic cells. The present invention used the human myeloid leukemic cell line HL-60 (ATCC, Manassas, Va.) to study the cell differentiation inducting ability of 278E.\nThe HL-60 cells were cultured in RPMI 1640 medium containing 10% fetal bovine serum and maintained in an exponential growth state. For assay of cytotoxicity, cells were incubated at an initial concentration of 1×10^5 cells/ml in the presence of various concentrations of 278E compounds (1-6 μg/ml) for 1-5 days."}, "HL-60 cells [3]": {"system": "HL-60 cells", "test": "Maturation profiles (morphology, Wright's stain)", "method": "After 5 days of treatments (1-5 μg/ml of 278E) as described in Example 1, HL-60 cells were collected and cytocentrifuged onto a microscope slide using a Cytospin, stained with Wright's stain and observed under an inverted microscope (Olympus) with a magnification of 1000×. Based on morphology, the cells were classified as: (1) immature blasts, (2) intermediates, or (3) mature monocytes or macrophages, and the ratio was counted respectively."}, "HL-60 cells [4]": {"system": "HL-60 cells", "test": "Assay for superoxide production (NBT reduction)", "conditions": "5 days", "method": "It has been known that immature blast cells had little superoxide production. The differentiation of cells is further evidenced in changes of superoxide production. Cells collected from example 1 after treatment with 278E for 5 days were collected and resuspended in RPMI 1640 medium at a concentration of 1×10^6 cells/ml and incubated for 30 min at 37° C. with an equal volume of nitroblue tetrazolium test stock solution [containing 2 mg of NBT and 1 μM of phorbol myristate acetate per ml of phosphate buffered saline]. Cells were collected and cytocentrifuged onto a microscope slide using cytospin. Cytospin preparations were counter-stained with 0.5% safranin O. The percentage of formazan-containing cells (based on counting 200 cells) was assessed microscopically."}, "HL-60 cells [5]": {"system": "HL-60 cells", "test": "Assay for differentiation antigens (indirect immunofluorescence, flow cytometry)", "conditions": "day 5", "method": "An indirect immunofluorescence method was employed in the invention to detect the expression of monocyte-associated antigens on the surface of HL-60 cells after induction of differentiation. 278E-treated cells collected from day 5 cultures were treated with primary monoclonal antibodies, washed with PBS and then exposed to a solution containing […] (FITC) conjugated secondary antibody, goat F(ab′)2 antimouse IgG (Cappel, Cochranville, Pa.). The aforementioned monoclonal antibodies against human monocytes included anti-CD 11b, anti-CD14 (Serotec, Oxford, UK), and anti-CD68 (Dakopatts, Glostrup, Denmark). The percentage of positive cells analyzed with a FACScan flow cytometer (Becton Dickenson, Franklin Lakes, N.J.) and Lysis II software (Becton Dickinson) is shown in Table 2."}, "[6]": {"system": "c-myc, c-fms, c-fos and c-jun in HL-60 cells", "test": "Expression of proto-oncogenes (RNA blot)", "method": "Total RNA was isolated from HL-60 cells using an RNAzol B kit (Biotecx, Galveston, Tex.) and quantified spectrophotometrically. Total cellular RNA (20 μg) from control or 278E-treated cells was electrophoresed on a 1.2% agarose gel and transferred to a nylon membrane. The blots were probed with radiolabeled cDNA of c-myc, c-fms, c-fos and c-jun. Glyceraldehyde-3-phosphate dehydrogenase (G3PDH) was used as an internal control."}, "HL-60 cells [7]": {"system": "HL-60 cells", "test": "Induction of monocytic differentiation by various combination treatments", "remark": "listed apart in the source"}}, "note": "Marks after values point to notes of the source that are not given here.", "data": [{"compound": "CN[C@@H]1C[C@H]2O[C@@](C)([C@@H]1OC)n1c3ccccc3c3c4c(c5c6ccccc6n2c5c31)C(=O)NC4", "note": "[Staurosporine]", "values": [{"measurement": "monocytes/macrophages (%)", "setting": "HL-60 cells [1]; Staurosporine 10 nM alone", "result": 0, "unit": "%"}]}, {"compound": "CCCCCCCCCCCCCC(=O)O[C@@H]1[C@@H](C)[C@@]2(O)[C@@H](C=C(CO)C[C@]3(O)C(=O)C(C)=C[C@@H]23)[C@H]2C(C)(C)[C@]12OC(C)=O", "note": "[TPA]", "values": [{"measurement": "differentiation-inducing activity after pretreatment of PKC inhibitor H7 and staurosporine", "setting": "HL-60 cells [1]; HL-60 cells, Table 3", "result": "suppressed"}, {"measurement": "monocytes/macrophages (%)", "setting": "HL-60 cells [1]; TPA 10 ng/ml alone", "result": "76.8 ± 7.2", "unit": "%"}, {"measurement": "monocytes/macrophages (%)", "setting": "HL-60 cells [1]; TPA 10 ng/ml with H7 15 μM", "result": "30.2 ± 4.5", "unit": "%"}, {"measurement": "monocytes/macrophages (%)", "setting": "HL-60 cells [1]; TPA 10 ng/ml with Staurosporine 10 nM", "result": "35.0 ± 2.3", "unit": "%"}]}, {"compound": "COc1cc(-c2oc3c(OC)cc(CCCO)cc3c2CO)ccc1Oc1ccccc1", "note": "[278E]", "values": [{"measurement": "effect on cell viability compared with untreated cells", "setting": "HL-60 cells [2]; 1 μg/ml", "result": "minimal effect"}, {"measurement": "inhibition at 5 µg/mL", "setting": "HL-60 cells [2]; Homo sapiens, HL-60, 72 h, day 3", "result": "85.5 ± 2.8", "unit": "%"}, {"measurement": "inhibition at 5 µg/mL", "setting": "HL-60 cells [2]; Homo sapiens, HL-60, 120 h, day 5", "result": "91.7 ± 1.7", "unit": "%"}, {"measurement": "IC50", "setting": "HL-60 cells [2]; Homo sapiens, HL-60 cells, viable cell count, 1-6 μg/ml for 1-5 days, read-out: concentration yielding 50% inhibition (IC50)", "result": 3.48, "unit": "µg/mL"}, {"measurement": "growth of HL-60 cells", "setting": "HL-60 cells [2]; dose- and time-dependent (FIG. 1)", "result": "inhibited significantly"}, {"measurement": "cell morphology", "setting": "HL-60 cells [3]; after 5 days of treatment (FIG. 2B)", "result": "many cells exhibited changes in characteristics"}, {"measurement": "percentage of mature monocyte/macrophage", "setting": "HL-60 cells [3]; after 5 days of treatment (FIG. 3), concentration not given", "result": "82.0±6.3", "unit": "%"}, {"measurement": "NBT reduction, Positive cells (%)", "setting": "HL-60 cells [4]; 1 μg/ml", "result": "0.3 ± 0.3", "unit": "%"}, {"measurement": "NBT reduction, Positive cells (%)", "setting": "HL-60 cells [4]; 2 μg/ml", "result": "1.8 ± 1.2", "unit": "%"}, {"measurement": "NBT reduction, Positive cells (%)", "setting": "HL-60 cells [4]; 3 μg/ml", "result": "9.3 ± 2.8", "unit": "%"}, {"measurement": "NBT reduction, Positive cells (%)", "setting": "HL-60 cells [4]; 4 μg/ml", "result": "59.0 ± 12.6 ^a %"}, {"measurement": "Positive cells (%) CD11b", "setting": "HL-60 cells [5]; 1 μg/ml", "result": "1.8 ± 0.5", "unit": "%"}, {"measurement": "Positive cells (%) CD14", "setting": "HL-60 cells [5]; 1 μg/ml", "result": "1.5 ± 0.4", "unit": "%"}, {"measurement": "Positive cells (%) CD68", "setting": "HL-60 cells [5]; 1 μg/ml", "result": "1.4 ± 0.4", "unit": "%"}, {"measurement": "Positive cells (%) CD11b", "setting": "HL-60 cells [5]; 2 μg/ml", "result": "2.6 ± 0.6", "unit": "%"}, {"measurement": "Positive cells (%) CD14", "setting": "HL-60 cells [5]; 2 μg/ml", "result": "2.1 ± 0.6", "unit": "%"}, {"measurement": "Positive cells (%) CD68", "setting": "HL-60 cells [5]; 2 μg/ml", "result": "1.8 ± 0.4", "unit": "%"}, {"measurement": "Positive cells (%) CD11b", "setting": "HL-60 cells [5]; 3 μg/ml", "result": "18.1 ± 6.5 ^a %"}, {"measurement": "Positive cells (%) CD14", "setting": "HL-60 cells [5]; 3 μg/ml", "result": "5.8 ± 2.8", "unit": "%"}, {"measurement": "Positive cells (%) CD68", "setting": "HL-60 cells [5]; 3 μg/ml", "result": "5.6 ± 2.1", "unit": "%"}, {"measurement": "Positive cells (%) CD11b", "setting": "HL-60 cells [5]; 4 μg/ml", "result": "62.1 ± 10.4 ^a %"}, {"measurement": "Positive cells (%) CD14", "setting": "HL-60 cells [5]; 4 μg/ml", "result": "47.7 ± 10.6 ^a %"}, {"measurement": "Positive cells (%) CD68", "setting": "HL-60 cells [5]; 4 μg/ml", "result": "34.5 ± 9.9 ^a %"}, {"measurement": "Positive cells (%) CD11b", "setting": "HL-60 cells [5]; 5 μg/ml", "result": "79.6 ± 9.8 ^a %"}, {"measurement": "Positive cells (%) CD68", "setting": "HL-60 cells [5]; 5 μg/ml", "result": "53.7 ± 10.0 ^a %"}, {"measurement": "expression of c-myc", "setting": "[6]; 6 μg/ml, 16 hour treatment (FIG. 4A)", "result": "markedly suppressed"}, {"measurement": "expression of c-fms", "setting": "[6]; after treatment (FIG. 4B)", "result": "enhanced"}, {"measurement": "expression of c-jun", "setting": "[6]; after treatment (FIG. 4C)", "result": "enhanced"}, {"measurement": "expression of c-fos", "setting": "[6]; after treatment (FIG. 4D)", "result": "enhanced"}, {"measurement": "monocytes/macrophages (%)", "setting": "HL-60 cells [7]; 278E 6 μg/m with H7 15 μM", "result": "51.3 ± 5.3", "unit": "%"}, {"measurement": "monocytes/macrophages (%)", "setting": "HL-60 cells [7]; 278E 6 μg/ml alone", "result": "56.1 ± 6.2", "unit": "%"}, {"measurement": "monocytes/macrophages (%)", "setting": "HL-60 cells [7]; 278E 6 μg/ml with Staurosporine 10 nM", "result": "55.6 ± 4.7", "unit": "%"}]}, {"compound": "CC1CNCCN1S(=O)(=O)c1cccc2cnccc12", "note": "(centres unmarked) [H7]", "values": [{"measurement": "monocytes/macrophages (%)", "setting": "HL-60 cells [1]; H7 15 μM alone", "result": 0, "unit": "%"}]}]}
